Blank lines part the entries; values can stand above or below the molecule they belong to. Activity calls are given as the source filed them. The rule behind the calls is not given here.
Assays:
Rattus norvegicus [1] = test: In vivo inhibition of galactitol accumulation in sciatic nerves of rat at 47 mg/kg/day; Not significant; assay type: functional, organism-based; conditions: Sciatic nerve
Rattus norvegicus [2] = test: In vivo inhibition of galactitol accumulation in diaphragm of rat at 47 mg/kg/day; Not significant; assay type: functional, organism-based
[3] = target: Aldo-keto reductase family 1 member B1 (Bos taurus) (UniProt P16116); test: In vitro % decrease of aldose reductase measured in isolated partially purified bovine lens preparations at 10e-7 M concentration
[4] = target: Aldo-keto reductase family 1 member B1 (Bos taurus) (UniProt P16116); test: In vitro % decrease of aldose reductase was measured in isolated partially purified bovine lens preparations at 10e-6 M concentration
Rattus norvegicus [5] = test: In vivo inhibition of galactitol accumulation in diaphragm of rat at 26 mg/kg/day; assay type: functional
Rattus norvegicus [6] = test: In vivo inhibition of galactitol accumulation in sciatic nerves of rat at 26 mg/kg/day; assay type: functional; conditions: Sciatic nerve
Rattus norvegicus [7] = test: In vivo inhibition of galactitol accumulation in diaphragm of rat at 50 mg/kg/day; Not significant; assay type: functional, organism-based
Rattus norvegicus [8] = test: In vivo inhibition of galactitol accumulation in sciatic nerves of rat at 50 mg/kg/day; Not significant; assay type: functional, organism-based; conditions: Sciatic nerve
Rattus norvegicus [9] = species on record: Rattus norvegicus; test: In vitro inhibition of sorbitol accumulation was measured in rat sciatic nerves incubated in the presence of 50 mM glucose at 10e-6 M concentration; assay type: functional, Sciatic nerve
Rattus norvegicus [10] = species on record: Rattus norvegicus; test: In vitro inhibition of sorbitol accumulation was measured in rat sciatic nerves incubated in the presence of 50 mM glucose at 10e-5 M concentration; assay type: functional, Sciatic nerve
Rattus norvegicus [11] = test: In vivo inhibition of galactitol accumulation in diaphragm of rat at 49 mg/kg/day; assay type: functional
Rattus norvegicus [12] = test: In vivo inhibition of galactitol accumulation in sciatic nerves of rat at 49 mg/kg/day; Not significant; assay type: functional, organism-based; conditions: Sciatic nerve
Rattus norvegicus [13] = test: In vivo inhibition of galactitol accumulation in sciatic nerves of rat at 48 mg/kg/day; assay type: functional; conditions: Sciatic nerve
Rattus norvegicus [14] = test: In vivo inhibition of galactitol accumulation in diaphragm of rat at 10 mg/kg/day; assay type: functional
Rattus norvegicus [15] = test: In vivo inhibition of galactitol accumulation in diaphragm of rat at 48 mg/kg/day; assay type: functional
Rattus norvegicus [16] = test: In vivo inhibition of galactitol accumulation in sciatic nerves of rat at 10 mg/kg/day; assay type: functional; conditions: Sciatic nerve
Rattus norvegicus [17] = test: In vivo inhibition of galactitol accumulation in sciatic nerves of rat at 26 mg/kg/day; Not significant; assay type: functional, organism-based; conditions: Sciatic nerve
Rattus norvegicus [18] = test: In vivo inhibition of galactitol accumulation in diaphragm of rat at 25 mg/kg/day; assay type: functional
Rattus norvegicus [19] = test: In vivo inhibition of galactitol accumulation in sciatic nerves of rat at 25 mg/kg/day; assay type: functional; conditions: Sciatic nerve
Rattus norvegicus [20] = test: In vivo inhibition of galactitol accumulation in sciatic nerves of rat at 24 mg/kg/day; Not significant; assay type: functional, organism-based; conditions: Sciatic nerve
Rattus norvegicus [21] = test: In vivo inhibition of galactitol accumulation in diaphragm of rat at 24 mg/kg/day; assay type: functional
Rattus norvegicus [22] = test: In vivo inhibition of galactitol accumulation in diaphragm of rat at 27 mg/kg/day; assay type: functional
Rattus norvegicus [23] = test: In vivo inhibition of galactitol accumulation in sciatic nerves of rat at 27 mg/kg/day; Not significant; assay type: functional, organism-based; conditions: Sciatic nerve
Rattus norvegicus [24] = test: In vivo inhibition of galactitol accumulation in sciatic nerves of rat at 53 mg/kg/day; Not significant; assay type: functional, organism-based; conditions: Sciatic nerve
Rattus norvegicus [25] = test: In vivo inhibition of galactitol accumulation in diaphragm of rat at 53 mg/kg/day; assay type: functional
Rattus norvegicus [26] = test: In vivo inhibition of galactitol accumulation in diaphragm of rat at 20 mg/kg/day; Not significant; assay type: functional, organism-based
[27] = target: Aldo-keto reductase family 1 member B1 (Bos taurus) (UniProt P16116); test: In vitro % decrease of aldose reductase was measured in isolated partially purified bovine lens preparations at 10e-7 M concentration; Not active
Rattus norvegicus [28] = test: In vivo inhibition of galactitol accumulation in sciatic nerves of rat at 20 mg/kg/day; Not significant; assay type: functional, organism-based; conditions: Sciatic nerve
Rattus norvegicus [29] = test: In vivo inhibition of galactitol accumulation in sciatic nerves of rat at 24 mg/kg/day; assay type: functional; conditions: Sciatic nerve
Rattus norvegicus [30] = test: In vivo inhibition of galactitol accumulation in sciatic nerves of rat at 5 mg/kg/day; assay type: functional; conditions: Sciatic nerve
Rattus norvegicus [31] = test: In vivo inhibition of galactitol accumulation in diaphragm of rat at 5 mg/kg/day; assay type: functional
Rattus norvegicus [32] = test: In vivo inhibition of galactitol accumulation in diaphragm of rat at 50 mg/kg/day; assay type: functional
Rattus norvegicus [33] = test: In vivo inhibition of galactitol accumulation in sciatic nerves of rat at 49 mg/kg/day; assay type: functional; conditions: Sciatic nerve

Compound: COC(=O)N(CC(=O)O)C(=O)c1c(Cl)ccc2c(C(F)(F)F)c(OC)ccc12
- inhibition [3]: 85%
- inhibition in vivo at 26 mg/kg/day (Rattus norvegicus [5]): 68%
- Inhibition (Rattus norvegicus [9]): 49%
- Inhibition (Rattus norvegicus [10]): 75%

Compound: COC(=O)N(CC(=O)O)C(=O)c1cccc2c(C(F)(F)F)c(OC)ccc12
- inhibition in vivo at 48 mg/kg/day (Rattus norvegicus [13]): 70%
- inhibition in vivo at 10 mg/kg/day (Rattus norvegicus [14]): 76%
- inhibition in vivo at 48 mg/kg/day (Rattus norvegicus [15]): 54%
- inhibition in vivo at 10 mg/kg/day (Rattus norvegicus [16]): 86%
- Inhibition (Rattus norvegicus [10]): 58%

Compound: COc1ccc2c(C(=S)N(C)CC(=O)O)c(OCc3ccccc3)ccc2c1C(F)(F)F
- inhibition (Rattus norvegicus [17]): inactive
- inhibition [3]: 84%
- inhibition in vivo at 26 mg/kg/day (Rattus norvegicus [5]): 80%

Compound: COc1ccc2c(C(=S)N(C)CC(=O)O)ccc(F)c2c1C(F)(F)F
- inhibition [3]: 84%
- inhibition in vivo at 25 mg/kg/day (Rattus norvegicus [18]): 90%
- inhibition in vivo at 25 mg/kg/day (Rattus norvegicus [19]): 94%

Compound: COc1ccc2c(C(=S)N(C)CC(=O)O)c(Oc3ccccc3)ccc2c1C(F)(F)F
- inhibition (Rattus norvegicus [20]): inactive
- inhibition [3]: 89%
- inhibition in vivo at 24 mg/kg/day (Rattus norvegicus [21]): 83%

Compound: COc1ccc2c(C(=S)N(C)CC(=O)O)cc(-c3ccccc3)cc2c1C(F)(F)F
- inhibition [3]: 93%
- inhibition (Rattus norvegicus [24]): inactive
- Inhibition (Rattus norvegicus [9]): 36%
- Inhibition (Rattus norvegicus [10]): 87%
- inhibition in vivo at 53 mg/kg/day (Rattus norvegicus [25]): 82%

Compound: COc1ccc2c(C(=O)N(C)CC(=O)O)ccc(F)c2c1C(F)(F)F
- inhibition (Rattus norvegicus [17]): inactive
- inhibition [3]: 64%
- inhibition in vivo at 26 mg/kg/day (Rattus norvegicus [5]): 15%

Compound: COc1ccc2c(C(=S)N(C)CC(N)=O)cc(C)cc2c1Br
- inhibition (Rattus norvegicus [26]): inactive
- inhibition [27]: inactive
- inhibition (Rattus norvegicus [28]): inactive
- inhibition in vivo at 24 mg/kg/day (Rattus norvegicus [29]): 68%
- inhibition in vivo at 24 mg/kg/day (Rattus norvegicus [21]): 70%

Continued, in another order:

- inhibition [3]: 6%
- inhibition [4]: 23%
Compound: COc1ccc2c(C(=O)N(C)CC(=O)O)c(C(C)(C)C)ccc2c1C(F)(F)F
- inhibition (Rattus norvegicus [1]): inactive
- inhibition (Rattus norvegicus [2]): inactive

- inhibition [3]: 86%
Compound: COc1ccc2c(C(=S)N(C)CC(=O)O)c(OCC(F)(F)F)ccc2c1C(F)(F)F
- inhibition in vivo at 26 mg/kg/day (Rattus norvegicus [5]): 88%
- inhibition in vivo at 26 mg/kg/day (Rattus norvegicus [6]): 33%

- inhibition [3]: 52%
Compound: COc1ccc2c(C(=O)N(C)CC(=O)O)c(Cc3ccccc3)ccc2c1C(F)(F)F
- inhibition (Rattus norvegicus [7]): inactive
- inhibition (Rattus norvegicus [8]): inactive

- inhibition [3]: 42%
Compound: CCCCOc1ccc2c(C(F)(F)F)c(OC)ccc2c1C(=O)N(C)CC(=O)O
- inhibition in vivo at 49 mg/kg/day (Rattus norvegicus [11]): 55%
- inhibition (Rattus norvegicus [12]): inactive

- inhibition [3]: 83%
Compound: COc1ccc2c(C(=O)N(C)CC(=O)O)c(Oc3ccccc3)ccc2c1C(F)(F)F
- inhibition in vivo at 48 mg/kg/day (Rattus norvegicus [13]): 32%
- inhibition in vivo at 48 mg/kg/day (Rattus norvegicus [15]): 67%
- Inhibition (Rattus norvegicus [9]): 45%
- Inhibition (Rattus norvegicus [10]): 78%

- inhibition [3]: 83%
Compound: COC(=O)N(CC(=O)O)C(=O)c1c(OCC(F)(F)F)ccc2c(C(F)(F)F)c(OC)ccc12
- inhibition in vivo at 27 mg/kg/day (Rattus norvegicus [22]): 49%
- inhibition (Rattus norvegicus [23]): inactive
- Inhibition (Rattus norvegicus [9]): 36%
- Inhibition (Rattus norvegicus [10]): 64%

- inhibition [3]: 91%
Compound: COc1ccc2c(C(F)(F)F)c(OC)ccc2c1C(=S)N(C)CC(=O)O
- inhibition (Rattus norvegicus [17]): inactive
- inhibition in vivo at 26 mg/kg/day (Rattus norvegicus [5]): 71%

- inhibition [27]: inactive
Compound: CCOC(=O)NC(=O)CN(C)C(=O)c1c(F)ccc2c(C(F)(F)F)c(OC)ccc12
- inhibition in vivo at 5 mg/kg/day (Rattus norvegicus [30]): 36%
- inhibition in vivo at 10 mg/kg/day (Rattus norvegicus [14]): 41%
- inhibition in vivo at 5 mg/kg/day (Rattus norvegicus [31]): 22%
- inhibition in vivo at 10 mg/kg/day (Rattus norvegicus [16]): 59%

- inhibition [3]: 79%
Compound: CCOC(=O)N(CC(=O)O)C(=O)c1c(Cl)ccc2c(C(F)(F)F)c(OC)ccc12
- inhibition in vivo at 50 mg/kg/day (Rattus norvegicus [32]): 47%
- inhibition (Rattus norvegicus [8]): inactive
- Inhibition (Rattus norvegicus [9]): 54%
- Inhibition (Rattus norvegicus [10]): 79%

- inhibition [3]: 65%
Compound: CCOc1ccc2c(C(F)(F)F)c(OC)ccc2c1C(=O)N(C)CC(=O)O
- Inhibition (Rattus norvegicus [9]): 30%
- Inhibition (Rattus norvegicus [10]): 55%
- inhibition in vivo at 49 mg/kg/day (Rattus norvegicus [11]): 57%
- inhibition in vivo at 49 mg/kg/day (Rattus norvegicus [33]): 45%

Reference: ChEMBL document CHEMBL1125860 (J Med Chem, 1991)
